From US9586951B2 (FUJIFILM Corporation, priority 2013, dated 2017)

Target: T1, ATM (Homo sapiens, UniProt Q13315)
T1 construct: detecting phosphorylation of Chk2 in a human non-small cell lung cancer cell line NCI-H460 (ATCC company); host or cells: NCI-H460 human non-small cell lung cancer cells
Assay: ATM inhibition test (phosphorylation of Chk2 generated by ionizing radiation, AlphaScreen SureFire)
Assay type: cell-based
Settings: phosphorylated Chk2 in NCI-H460 cells, ionizing radiation 8Gy, 1 hour after test compound treatment; read-out: ATM inhibitory activity
How it was run: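 Human NCI-H460 lung cancer cells were treated with compound for 1 h, then irradiated at 8Gy and incubated 1 h at 37° C. Phospho-Chk2 was quantified by AlphaScreen SureFire; inhibition % was normalised between irradiated untreated and non-irradiated untreated wells.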

T1 sequence (Q13315 whole entry): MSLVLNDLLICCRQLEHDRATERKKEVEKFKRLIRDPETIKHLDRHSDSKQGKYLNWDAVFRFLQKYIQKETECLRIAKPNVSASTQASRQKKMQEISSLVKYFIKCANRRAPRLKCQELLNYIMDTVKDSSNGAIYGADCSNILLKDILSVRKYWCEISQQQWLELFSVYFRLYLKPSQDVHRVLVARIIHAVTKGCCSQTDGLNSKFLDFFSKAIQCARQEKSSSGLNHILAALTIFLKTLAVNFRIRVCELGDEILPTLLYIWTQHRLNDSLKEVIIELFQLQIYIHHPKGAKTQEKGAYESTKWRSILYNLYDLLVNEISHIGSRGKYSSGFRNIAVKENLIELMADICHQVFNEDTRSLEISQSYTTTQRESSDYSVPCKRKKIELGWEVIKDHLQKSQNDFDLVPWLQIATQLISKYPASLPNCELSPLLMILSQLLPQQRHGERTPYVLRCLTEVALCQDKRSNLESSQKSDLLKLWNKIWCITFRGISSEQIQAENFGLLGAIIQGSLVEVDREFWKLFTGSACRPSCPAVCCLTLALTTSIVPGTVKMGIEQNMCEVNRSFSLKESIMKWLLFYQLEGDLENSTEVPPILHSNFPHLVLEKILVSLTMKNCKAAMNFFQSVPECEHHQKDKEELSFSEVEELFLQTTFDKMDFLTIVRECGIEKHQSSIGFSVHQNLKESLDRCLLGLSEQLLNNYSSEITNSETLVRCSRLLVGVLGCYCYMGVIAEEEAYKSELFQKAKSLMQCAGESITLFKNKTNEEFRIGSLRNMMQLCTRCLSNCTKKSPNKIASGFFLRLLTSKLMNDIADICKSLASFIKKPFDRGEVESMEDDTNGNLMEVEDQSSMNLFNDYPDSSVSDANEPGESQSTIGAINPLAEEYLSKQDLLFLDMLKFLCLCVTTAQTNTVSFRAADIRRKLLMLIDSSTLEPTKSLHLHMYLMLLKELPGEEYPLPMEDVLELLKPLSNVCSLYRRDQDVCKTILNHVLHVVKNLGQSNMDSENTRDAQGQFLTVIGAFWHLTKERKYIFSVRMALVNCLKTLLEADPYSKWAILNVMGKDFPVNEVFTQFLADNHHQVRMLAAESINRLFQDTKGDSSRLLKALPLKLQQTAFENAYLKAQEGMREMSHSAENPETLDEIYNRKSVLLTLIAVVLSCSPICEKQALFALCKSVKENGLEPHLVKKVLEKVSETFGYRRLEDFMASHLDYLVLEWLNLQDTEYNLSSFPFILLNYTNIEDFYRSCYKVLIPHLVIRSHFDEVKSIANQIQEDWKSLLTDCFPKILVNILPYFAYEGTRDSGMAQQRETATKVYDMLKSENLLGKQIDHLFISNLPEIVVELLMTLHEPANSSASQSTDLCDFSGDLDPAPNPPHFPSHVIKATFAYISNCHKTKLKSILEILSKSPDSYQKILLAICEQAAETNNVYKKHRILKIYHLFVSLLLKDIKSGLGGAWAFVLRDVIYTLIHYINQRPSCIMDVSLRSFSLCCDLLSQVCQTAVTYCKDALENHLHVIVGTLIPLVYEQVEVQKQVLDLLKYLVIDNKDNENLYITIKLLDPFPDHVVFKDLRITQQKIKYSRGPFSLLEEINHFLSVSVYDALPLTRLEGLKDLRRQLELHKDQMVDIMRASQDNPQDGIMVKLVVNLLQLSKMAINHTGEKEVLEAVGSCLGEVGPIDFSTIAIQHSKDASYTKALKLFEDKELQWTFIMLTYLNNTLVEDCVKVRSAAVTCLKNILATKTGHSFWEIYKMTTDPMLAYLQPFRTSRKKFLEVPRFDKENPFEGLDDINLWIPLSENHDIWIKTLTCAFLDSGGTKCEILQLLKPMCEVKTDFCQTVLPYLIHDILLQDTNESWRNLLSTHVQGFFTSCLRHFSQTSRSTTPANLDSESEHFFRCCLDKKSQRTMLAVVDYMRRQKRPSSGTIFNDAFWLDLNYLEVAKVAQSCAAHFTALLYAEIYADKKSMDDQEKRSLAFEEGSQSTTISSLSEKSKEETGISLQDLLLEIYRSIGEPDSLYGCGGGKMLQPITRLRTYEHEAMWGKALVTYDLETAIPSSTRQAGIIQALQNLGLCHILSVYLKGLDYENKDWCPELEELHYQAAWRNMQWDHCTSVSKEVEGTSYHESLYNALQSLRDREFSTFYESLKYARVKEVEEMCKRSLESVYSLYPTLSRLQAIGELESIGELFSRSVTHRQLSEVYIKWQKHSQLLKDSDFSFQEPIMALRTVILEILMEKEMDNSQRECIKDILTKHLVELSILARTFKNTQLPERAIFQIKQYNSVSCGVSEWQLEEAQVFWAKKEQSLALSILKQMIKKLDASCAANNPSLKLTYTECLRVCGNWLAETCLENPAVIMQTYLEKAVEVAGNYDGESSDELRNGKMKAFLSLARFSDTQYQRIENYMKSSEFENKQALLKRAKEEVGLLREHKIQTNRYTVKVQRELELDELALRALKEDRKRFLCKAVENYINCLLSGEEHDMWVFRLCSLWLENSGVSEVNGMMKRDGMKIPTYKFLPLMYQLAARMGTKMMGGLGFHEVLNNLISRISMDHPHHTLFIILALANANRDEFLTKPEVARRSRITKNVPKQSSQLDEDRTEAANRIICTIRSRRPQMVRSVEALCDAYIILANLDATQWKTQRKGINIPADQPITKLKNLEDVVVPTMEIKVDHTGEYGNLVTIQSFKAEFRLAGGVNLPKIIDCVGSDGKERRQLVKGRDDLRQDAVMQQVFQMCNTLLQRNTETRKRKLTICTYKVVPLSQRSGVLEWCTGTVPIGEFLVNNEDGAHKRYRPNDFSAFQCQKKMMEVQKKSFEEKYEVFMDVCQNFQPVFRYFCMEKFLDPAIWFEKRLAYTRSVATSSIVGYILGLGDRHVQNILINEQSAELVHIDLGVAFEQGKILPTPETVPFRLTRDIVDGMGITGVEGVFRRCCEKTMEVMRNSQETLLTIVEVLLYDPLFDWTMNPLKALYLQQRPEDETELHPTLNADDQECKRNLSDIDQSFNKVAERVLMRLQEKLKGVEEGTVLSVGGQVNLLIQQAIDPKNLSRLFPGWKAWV

Row | Compound | IC50 [nM]
1 | O=c1cc(N2CCOCC2)cc(-c2cccc3c2Sc2ccc(NCc4cncc(-c5cccnc5)c4)cc2S3)[nH]1 [Example 1-12-21, 6-(7-(([3,3′-Bipyridin]-5-ylmethyl)amino)thianthren-1-yl)-4-morpholino pyridin-2 (1H)-one] | < 100
2 | O=c1cc(N2CCOCC2)cc(-c2cccc3c2Oc2ccc(NCc4cncc(N5CCCC5)c4)cc2C3)[nH]1 [Example 2-2-63, 4-Morpholino-6-(7-(((5-(pyrrolidin-1-yl)pyridin-3-yl)methyl)amino)-9H-xanthen-4-yl)pyridin-2(1H)-one] | 100 to 500
3 | Nc1ccc2c(c1)Cc1ccc(F)c(-c3cc(N4CCOCC4)cc(=O)[nH]3)c1O2 [Example 2-45, 6-(7-Amino-3-fluoro-9H-xanthen-4-yl)-4-morpholinopyridin-2(1H)-one] | 100 to 500
4 | Cc1ccc(C(Nc2ccc3c(c2)Sc2cccc(-c4cc(N5CCOCC5)cc(=O)[nH]4)c2S3)C2CNCCO2)nc1 (single isomer, unassigned) [Example 1-55-2, 6-(7-(((5-methylpyridin-2-yl)(morpholin-2-yl)methyl)amino)thianthren-1-yl)-4-morpholinopyridin-2(1H)-one] | < 100
5 | O=C(N[C@H]1CC[C@H](Nc2ccc3c(c2)Cc2cccc(-c4cc(N5CCOCC5)cc(=O)[nH]4)c2O3)CC1)OCc1ccccc1 [Example 2-2-54, Benzyl ((trans)-4-((5-(4-morpholino-6-oxo-1,6-dihydropyridin-2-yl)-9H-xanthen-2-yl)amino)cyclohexyl)carbamate] | 500 to 2000
6 | COCCN1CCC(Nc2ccc3c(c2)Cc2cccc(-c4cc(N5CCOCC5)cc(=O)[nH]4)c2O3)CC1 [Example 2-29, 6-(7-((1-(2-Methoxyethyl)piperidin-4-yl)amino)-9H-xanthen-4-yl)-4-morpholinopyridin-2(1H)-one] | 500 to 2000
7 | CC(CN1CCC1)Nc1ccc2c(c1)Sc1cccc(-c3cc(N4CCOCC4)cc(=O)[nH]3)c1S2 (stereo not shown) [Example 1-43-1, 6-(7-((1-(azetidin-1-yl)propan-2-yl)amino)thianthren-1-yl)-4-morpholinopyridin-2(1H)-one] | 100 to 500
8 | Cc1nccc(C(C)Nc2ccc3c(c2)Cc2cccc(-c4cc(N5CCOCC5)cc(=O)[nH]4)c2O3)n1 (stereo not shown) [Example 2-14-48, 6-(7-((1-(2-Methylpyrimidin-4-yl)ethyl)amino)-9H-xanthen-4-yl)-4-morpholino pyridin-2 (1H)-one] | 100 to 500
9 | Cc1nccc(CNc2ccc3c(c2)Sc2cccc(-c4cc(N5CCOCC5)cc(=O)[nH]4)c2S3)n1 [Example 1-12-39, 6-(7-(((2-Methylpyrimidin-4-yl)methyl)amino)thianthren-1-yl)-4-morpholino pyridin-2 (1H)-one] | 500 to 2000
10 | COc1cncc(CNc2ccc3c(c2)Cc2cccc(-c4cc(N5CCOCC5)cc(=O)[nH]4)c2O3)c1 [Example 2-3-8, 6-(7-(((5-Methoxypyridin-3-yl)methyl)amino)-9H-xanthen-4-yl)-4-morpholino pyridin-2(1H)-one] | 100 to 500
11 | O=c1cc(N2CCOCC2)cc(-c2cccc3c2Sc2ccc(NCc4cncc(-n5cccc5)c4)cc2S3)[nH]1 [Example 1-12-19, 6-(7-(((5-(1H-Pyrrol-1-yl)pyridin-3-yl)methyl)amino)thianthren-1-yl)-4-morpholino pyridin-2(1H)-one] | < 100
12 | COc1cccnc1CNc1ccc2c(c1)Cc1ccnc(-c3cc(N4CCOCC4)cc(=O)[nH]3)c1O2 [Example 2-41-12, 6-(7-(((3-Methoxypyridin-2-yl)methyl)amino)-5H-chromeno [2,3-c]pyridin-1-yl)-4-morpholino pyridin-2(1H)-one] | 500 to 2000
13 | O=c1cc(N2CCOCC2)cc(-c2cccc3c2Oc2ccc(NCc4cnc5c(c4)OCO5)cc2C3)[nH]1 [Example 2-2-30, 6-(7-(([1,3]Dioxolo[4,5-b]pyridin-6-ylmethyl)amino)-9H-xanthen-4-yl)-4-morpholino pyridin-2(1H)-one] | 100 to 500
14 | Cc1ccc(C(Nc2ccc3c(c2)Sc2cccc(-c4cc(N5CCOCC5)cc(=O)[nH]4)c2S3)[C@@H]2CN(C)CCO2)nc1 (single isomer, unassigned) [Example 1-56-10] | < 100
15 | O=c1cc(N2CCOCC2)cc(-c2cccc3c2Oc2ccc(NCc4cnc5occc5c4)cc2C3)[nH]1 [Example 2-2-44, 6-(7-((Furo[2,3-b]pyridin-5-ylmethyl)amino)-9H-xanthen-4-yl)-4-morpholino pyridin-2(1H)-one] | < 100
16 | CC(Nc1ccc2c(c1)Cc1cccc(-c3cc(N4CCOCC4)cc(=O)[nH]3)c1O2)c1ccnc(C#N)n1 (stereo not shown) [Example 2-14-58, 4-(1-((5-(4-Morpholino-6-oxo-1,6-dihydropyridin-2-yl)-9H-xanthen-2-yl)amino)ethyl)pyrimidine-2-carbonitrile] | 100 to 500
17 | Cc1ccnc(C(C)Nc2ccc3c(c2)Cc2ccnc(-c4cc(N5CCOCC5)cc(=O)[nH]4)c2O3)c1 (stereo not shown) [Example 2-42-5, 6-(7-((1-(4-Methylpyridin-2-yl)ethyl)amino)-5H-chromeno[2,3-c]pyridin-1-yl)-4-morpholinopyridin-2(1H)-one] | 100 to 500
18 | O=c1cc(N2CCOCC2)cc(-c2cccc3c2Sc2ccc(NCc4ccnc(N5CCOCC5)n4)cc2S3)[nH]1 [Example 1-12-41, 4-Morpholino-6-(7-(((2-morpholinopyrimidin-4-yl)methyl)amino)thianthren-1-yl)pyridin-2(1H)-one] | 100 to 500
19 | Cc1ccccc1CCN1CCC(Nc2ccc3c(c2)Cc2cccc(-c4cc(N5CCOCC5)cc(=O)[nH]4)c2O3)CC1 [Example 2-30-4, 6-(7-((1-(2-Methylphenethyl)piperidin-4-yl)amino)-9H-xanthen-4-yl)-4-morpholino pyridin-2 (1H)-one] | 100 to 500
20 | CCCC(Nc1ccc2c(c1)Sc1cccc(-c3cc(N4CCOCC4)cc(=O)[nH]3)c1S2)[C@H](C)N1CCOCC1 (stereo partly drawn) [Example 1-21-1, 6-(7-(((2S)-2-morpholinohexan-3-yl)amino)thianthren-1-yl)-4-morpholinopyridin-2(1H)-one] | 100 to 500
21 | Cc1ccc(C(CCN2CCOCC2)Nc2ccc3c(c2)Sc2cccc(-c4cc(N5CCOCC5)cc(=O)[nH]4)c2S3)nc1 (single isomer, unassigned) [Example 1-51-7, 6-(7-((1-(5-Methylpyridin-2-yl)-3-morpholinopropyl)amino)thianthren-1-yl)-4-morpholino pyridin-2(1H)-one] | < 100
22 | Cc1ccc(C(Nc2ccc3c(c2)Sc2cccc(-c4cc(N5CCOCC5)cc(=O)[nH]4)c2S3)C2CCN(C)C2)nc1 (single isomer, unassigned) [Example 10-3-5] | < 100
23 | COCc1ccc(CNc2ccc3c(c2)Cc2cccc(-c4cc(N5CCOCC5)cc(=O)[nH]4)c2O3)cn1 [Example 2-2-43, 6-(7-(((6-(Methoxymethyl)pyridin-3-yl)methyl)amino)-9H-xanthen-4-yl)-4-morpholino pyridin-2(1H)-one] | 100 to 500
24 | [N-]=[N+]=NCC(CN1CCOCC1)Nc1ccc2c(c1)Sc1cccc(-c3cc(N4CCOCC4)cc(=O)[nH]3)c1S2 (stereo not shown) [Example 9-1, 6-(7-((1-azide-3-morpholinopropan-2-yl)amino)thianthren-1-yl)-4-morpholinopyridin-2(1H)-one] | 100 to 500
25 | O=c1cc(N2CCOCC2)cc(-c2cccc3c2Sc2ccc(NC4CCCN(Cc5ccncc5)C4)cc2S3)[nH]1 (stereo not shown) [Example 1-24-4, 4-Morpholino-6-(7-((1-(pyridin-4-ylmethyl)piperidin-3-yl)amino)thianthren-1-yl)pyridin-2 (1H)-one] | < 100
